Values quoted from earlier work as cited in patent US20260053818A1, “PHARMACEUTICAL FORMULATION FOR THE TREATMENT OF INFLAMMATORY CHANGES TO THE RECTUM” (Dr. Falk Pharma GmbH, priority 2015, published 2026).
Converted amounts (≈) assume the structure as drawn.

Details: Merck Index

- solubility in water: 14 µg/mL (≈ 32.5 µM)
Structure (SMILES): CCCC1O[C@@H]2C[C@H]3[C@@H]4CCC5=CC(=O)C=C[C@]5(C)[C@H]4[C@@H](O)C[C@]3(C)[C@]2(C(=O)CO)O1 (stereo partly shown) [budesonide]
